This is an account of results in PubChem BioAssay (NCI).

Holding throughout (experiment): NCI anticancer screen, dose series, 48 h
In test [1] the test system is KM20L2 colon.
The test system of test [2] is DMS 273 small cell lung.
For test [3], the system named is DMS 114 small cell lung.
In test [4] the test system is HOP-18 NSCLC.
In test [5] the test system is DLD-1 colon.
Test [6] deals with LXFL 529 NSCLC.
The subject of test [7] is T-47D breast.
The subject of test [8] is PC-3 prostate.
The subject of test [9] is NCI/ADR-RES ovarian.
For test [10], the system named is BT-549 breast.

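Step 1: Grow cells in 96-well plates. Step 2: Expose to compound for 48 hours at 5 concentrations. Step 3: Interpolate endpoints linearly; if unreached, use highest concentration. TGI is the concentration that stops growth completely.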

`O=c1[nH]cc(OCC(F)(F)F)c(=O)[nH]1`: the TGI in test [1], in test [2], in [3], in [4], in test [5] and in [6] was above 100 µM in each case.
For the compound `COc1ccc2cc3n(c2c1)CCc1cc(OC)c(OC)cc1-3`, the TGI in test [1], in [2], in [3], in test [4], in test [5] and in [6] was above 100 µM each time.
For the compound `CC(=O)NC(CCCN(Cc1ccccc1)C(=O)N(CCCl)N=O)C(=O)NCc1ccccc1` (configuration not stated), the TGI in [1], in test [2], in test [3], in test [4], in test [5] and in test [6] was above 100 µM in each case.
As to `O=C1CC2C(=O)N(Cc3ccccc3)C1C(S(=O)(=O)c1ccccc1)C2S(=O)(=O)c1ccccc1` (configuration not stated), the TGI in test [1] was determined as 7.4 µM; in test [2], 18.6 µM; in test [3] it was 2.72 µM; in test [4] it was 13.8 µM; in test [5] it was 3.13 µM; in test [6], 2.61 µM.
Regarding `COC(=O)C(Cc1nc2ccc(Cl)cc2[nH]c1=O)C(=O)C(=O)Nc1ccccc1[N+](=O)[O-]` (configuration not stated), the TGI in [1], in test [2], in test [3], in test [4], in [5] and in test [6] was above 100 µM each time.
With `CN(C)CCNC(=O)c1ccc(Cl)c2c(Nc3ccc(S(N)(=O)=O)cc3)c3ccccc3nc12`, the TGI is 13.4 µM in [1]; 8.09 µM in [2]; 4.63 µM in test [3]; 5.92 µM in [4]; 8.85 µM in [5]; 11.2 µM in test [6].
As for `COC(=O)C(=O)C(C(=O)C=C(C)C)C(=O)C(=O)Nc1cccc(C(C)=O)c1` (configuration not stated), the TGI in test [1], in test [2], in test [3], in [4], in [5] and in test [6] was above 100 µM in each case.
Take `CCO[C@@H]1C2C=CC(C2)[C@H]1[N+](=O)[O-]` (some centres not stated): the TGI in test [1], in [2], in [3], in test [4], in test [5] and in test [6] was above 100 µM in each case.
As for `CCC1CN2CCc3cc(OC)c(OC)cc3C2CC1CC1c2cc(OC)c(OC)cc2CCN1C(=O)CNC(=O)OC(C)(C)C` (configuration not stated), the TGI in test [1] is 90.6 µM; in test [2], 37.8 µM; in test [3], 20 µM; in test [4], 70.7 µM; in [5], 36.9 µM; in test [6] it was 36.2 µM.
Turning to `CCSc1nc(COC(=O)NC)c(COC(=O)NC)n1C`, the TGI in test [1] was above 100 µM; in test [2] it was above 100 µM; in test [7], above 100 µM; in [3], above 76.2 µM; in [4] it was above 100 µM; in test [5], above 100 µM. Also, the TGI was above 100 µM in test [8], above 100 µM in test [9], above 100 µM in test [10] and above 54.8 µM in test [6].
For the compound `CC(=O)Oc1ccccc1C(=O)C1c2cccc(O)c2C(=O)c2c(O)cccc21`, the TGI in test [1] was determined as 5.57 µM; in [2], 3.8 µM; in test [3] it was 1.28 µM; in test [4], 4.87 µM; in [5] it was 12.2 µM; in test [6] it was 4.03 µM.
In the case of `CN(C)C(=O)C1CCC(=C2C(=O)OC(C)(C)OC2=O)N1C` (configuration not stated), the TGI in [1], in test [2], in test [3], in [4], in [5] and in test [6] was above 100 µM in each case.
As for `Cc1cccc(C(C)(C)C)c1NC(=O)C(=O)C(c1cnc2ccccc2n1)[N+](=O)[O-]` (configuration not stated), the TGI in test [1], in [2], in [3], in [4], in test [5] and in [6] was above 100 µM in each case.
